The values below come from patent publication US11672798B2, “Ciprofloxacin ophthalmic topical composition for treating ocular disease” (LABORATORIOS SALVAT, S.A., priority 2021, dated 2023).

For data set [1] the following is noted: topical ocular administration, background statement; cited from earlier work.
The subject of data set [2] is SIRC (Statens Serum Institut Rabbit Cornea, ATCC CCL-60) cells. Here is the method: Permeability assays were performed in triplicate and repeated at least in three independent assays on different days. For this purpose, SIRC (Statens Serum Institut Rabbit Cornea, ATCC® CCL-60™) cells were seeded in sterile 6-well microfilter plates and maintained in culture until confluence. SIRC cells were cultured in Eagle's Minimum Essential Medium (EMEM) supplemented with 10% foetal bovine serum (FBS) and with 1% of penicillin-streptomycin solution at 37° C. and 10% CO2 in air. Ciprofloxacin was dissolved in dimethyl sulfoxide (DMSO) to prepare a concentrated stock solution which was further diluted in culture medium to obtain a final concentration of 20 μg/ml.
The cells were treated with ciprofloxacin alone or in combination with the different concentrations of each corticosteroid for 15 minutes. After the incubation period, the culture medium was removed, and the cells were harvested by trypsinization and centrifuged at 980 g for 5 min at 4° C. The cellular pellet was washed with saline solution to remove possible traces of residual extracellular compounds, centrifuged, and preserved at −80° C. for further analysis.
Intracellular ciprofloxacin was quantified by ultra-high-performance liquid chromatography coupled to tandem mass spectrometry (UHPLC-MS/MS). […] Transition monitored for ciprofloxacin was m/z 332.2→288.2, with cone voltage 35 V and collision energy 20 eV.

Turning to `O=C(O)c1cn(C2CC2)c2cc(N3CCNCC3)c(F)cc2c1=O` [ciprofloxacin, Ciprofloxacin], the “fraction of topically instilled drug absorbed into the ocular tissue” value in data set [1] was “around 1%”.

`CC1(C)O[C@@H]2C[C@H]3[C@@H]4C[C@H](F)C5=CC(=O)C=C[C@]5(C)[C@@]4(F)[C@@H](O)C[C@]3(C)[C@]2(C(=O)CO)O1` [fluocinolone acetonide, Fluocinolone acetonide]: the “dose dependence of the penetration enhancing effect on ciprofloxacin” value in data set [2] is listed as “dose-dependent”.
